Reference: US4399124A, “Peptides having immunostimulating properties and pharmaceutical compositions containing them” (Institut Pasteur, priority 1979, dated 1983)
Ends that are not written are not given here.

Experiments:
[1] = system: Listeria monocytogenes; assay: Multiplication of Listeria monocytogenes in the liver and the spleen of treated mice; type: in vivo; details: 0.5 ml of 10^-4 M i.v. 12 h before i.v. 0.3×10^5 Listeria; NaCl control 7 × 10^7 ± 2.4
Method: Mice in four batches of 4 animals were treated under the same conditions as previously. Twelve hours later, the mice were all inoculated, intravenously with 0.3×10^5 Listeria monocytogenes. The table below summarizes the results obtained. Again, the mice treated by the active principles show, in their spleen and especially in their liver, a number of Listeria up to 500 times smaller than in the liver of the control animals.

[2] = system: Lewis carcinoma (3LL); assay: Resistance of treated mice to Lewis carcinoma (3LL); type: in vivo, C57B1/6 mice; details: product injected 24 hours after inoculation; for Development of the tumor (difference in thickness between tumor paw and contralateral paw): 10^5 3LL cells into plantar pad, measured 9 days later, NaCl control 326 ± 34; for Number of pulmonary metastases: tumor paw amputated, autopsy 20 days after inoculation, NaCl control 5.3 ± 2.7
Method: This tumor is maintained in the laboratory as has been described (Fauve, R. M. and Hevin, B., Ann. Immunol. (Inst. Pasteur), 1977, 128C, 923-928). 3LL cells were cultured in Eagle medium supplemented with 15% of foetal calf serum and, after washing and resuspending in Eagle medium without serum, injected in the proportion of 10^5 cells in a volume of […] into the plantar pad of C57B1/6 mice. The difference between the thickness of the paw where the tumor is developed and the contralateral paw enables the development of the tumor to be evaluated.
In all cases, the products tested were injected 24 hours after inoculation of the malignant cells and, 9 days later, after having measured the thickness of the paws, the paw bearing the tumor was amputated and, 11 days later, namely 20 days after inoculation of the tumors, the animals were autopsied and the number of metastatic pumonary nodules counted. The following table summarizes the results obtained.

[3] = system: Salmonella typhimurium; assay: Blood purging of Salmonella typhimurium in treated mice; type: in vivo; details: 0.5 ml of 10^-4 M i.v. 12 h before i.v. 2×10^7 Salmonella typhimurium; NaCl control 1.20 × 10^6 ± 0.28
Method: The increase in the bactericidal power of the macrophages always accompanying an increase in their ingestion capacities, it was sought to measure the latter with Salmonella typhimurium which necessitates for its phagocytosis, contrary to Listeria monocytogenes, opsonizing antibodies or a considerable stimulation of the hepatic macrophages. For this, the mice were treated under the same conditions as in the preceding experiment but were inoculated with 2×10^7 Salmonella typhimurium intravenously.

[4] = system: guinea pig ileon; details: cited from earlier work

Substance | Number of Listeria monocytogenes in the spleen of mice 48 h after infection [1] | Development of the tumor (difference in thickness between tumor paw and contralateral paw) [2] | Number of pulmonary metastases [2] | Number of Salmonella typhimurium per ml of blood 2 h after infection [3] | Activity with respect to the guinea pig ileon [4]
RPPGF [1-5, Arginyl→prolyl→prolyl→glycyl→phenylalanine] | 3.1 × 10^7 ± 1 | 284 ± 33 | 0.7 ± 0.11 | 3.05 × 10^5 ± 1.6 per ml of blood | totally inactive
KPPGF [L5, Lysyl→prolyl→prolyl→glycyl→phenylalanine] | 1.8 × 10^7 ± 0.28 | 295 ± 25 | 3.7 ± 2 | 9.35 × 10^4 ± 7.9 per ml of blood | 
HPPGF [H5, Histidyl→prolyl→prolyl→glycyl→phenylalanine] | 2.4 × 10^7 ± 1.3 | 272 ± 41 | 0.5 ± 0.10 | 7.15 × 10^4 ± 0.78 per ml of blood | 
